Reference: patent US20190071416A1, “COMPOUNDS FOR TREATMENT OF CANCER AND EPIGENETICS” (Agency For Science, Technology and Research, priority 2015, published 2019)

Molecular target: T1, SMYD3 (Homo sapiens, UniProt Q9H7B4)
T1 sequence (Q9H7B4 1-428): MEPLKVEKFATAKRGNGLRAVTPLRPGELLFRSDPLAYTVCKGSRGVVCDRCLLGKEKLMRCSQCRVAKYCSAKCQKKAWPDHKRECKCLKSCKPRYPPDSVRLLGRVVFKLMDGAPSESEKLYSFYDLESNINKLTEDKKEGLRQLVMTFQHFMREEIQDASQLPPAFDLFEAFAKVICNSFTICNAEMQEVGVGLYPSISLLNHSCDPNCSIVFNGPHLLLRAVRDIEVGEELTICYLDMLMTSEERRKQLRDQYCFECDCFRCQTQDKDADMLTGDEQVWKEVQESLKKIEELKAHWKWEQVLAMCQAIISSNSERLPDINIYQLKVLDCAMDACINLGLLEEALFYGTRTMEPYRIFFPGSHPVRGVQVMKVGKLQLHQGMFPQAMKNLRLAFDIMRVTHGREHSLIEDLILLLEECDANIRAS
Assay: SMYD3 biochemical assay (MTase-Glo, MAP3K2 peptide substrate)
Conditions: Table 3; MTase assay, MAP3K2 peptide substrate; read-out: IC50
Procedure, shortened: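 Luminescent readout of SAH production (coupled SAH→ATP conversion, MTase-Glo) after SMYD3 reacted 30 min at room temperature with 1.0 µM SAM and 10 µM MAP3K2 peptide, both final. Non-linear regression gave IC50 values.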

SMILES	IC50 [nM]
CCCOC(=O)N1CCN(C(=O)c2ccc3c(Cl)cc(-c4cnn(CC(F)(F)F)c4)nc3c2)C[C@@H]1C [B276, Propyl (S)-4-(4-chloro-2-(1-(2,2,2-trifluoroethyl)-1H-pyrazol-4-yl)quinoline-7-carbonyl)-2-methylpiperazine-1-carboxylate]	22
CCCOC(=O)N1CCN(C(=O)c2ccc3c(Cl)c4c(nc3c2)CC(c2ccc(F)cn2)CC4)[C@H](C)C1 (stereo partly drawn) [A106, Propyl (3R)-4-(9-chloro-6-(5-fluoropyridin-2-yl)-5,6,7,8-tetrahydroacridine-3-carbonyl)-3-methylpiperazine-1-carboxylate]	41
CCCOC(=O)N1CCN(C(=O)c2ccc3c(Cl)cc(-c4ccc(C(C)(C)CNC)cc4)nc3c2)CC1 [B286, Propyl 4-(4-chloro-2-(4-(2-methyl-1-(methylamino)propan-2-yl)phenyl)quinoline-7-carbonyl)piperazine-1-carboxylate]	25
CCCOC(=O)N1CCN(C(=O)c2ccc3c(Cl)c4c(nc3c2)CC(c2ccc(F)cn2)CC4)C[C@H]1C (stereo partly drawn) [A098, Propyl (2R)-4-(9-chloro-6-(5-fluoropyridin-2-yl)-5,6,7,8-tetrahydroacridine-3-carbonyl)-2-methylpiperazine-1-carboxylate]	150
CCCOC(=O)N1CCN(C(=O)c2ccc3c(Cl)cc(-c4ccc5[nH]cc(C)c5c4)nc3c2)CC1 [B211, Propyl 4-(4-chloro-2-(3-methyl-1H-indol-5-yl)quinoline-7-carbonyl)piperazine-1-carboxylate]	1010
CCCOC(=O)N1CCN(C(=O)c2ccc3c(Cl)cc(-c4ccc(C)cc4)nc3c2)CC1 [B010]	500
CCCOC(=O)N1CCN(C(=O)c2ccc3c(Cl)cc(-c4cnn(C5COC5)c4)nc3c2)C[C@H]1C [B272, Propyl (R)-4-(4-chloro-2-(1-(oxetan-3-yl)-1H-pyrazol-4-yl)quinoline-7-carbonyl)-2-methylpiperazine-1-carboxylate]	16
CCCOC(=O)N1CCN(C(=O)c2ccc3c(Cl)c(C)c(-c4ccc(CN)cc4)nc3c2)CC1 [B093, Propyl 4-(2-(4-(aminomethyl)phenyl)-4-chloro-3-methylquinoline-7-carbonyl)piperazine-1-carboxylate]	42
CCCOC(=O)N1CC2CCC1CN2C(=O)c1ccc2c(Cl)c3c(nc2c1)CCCC3 (stereo not drawn) [A005, Propyl 5-(9-chloro-5,6,7,8-tetrahydroacridine-3-carbonyl)-2,5-diazabicyclo[2.2.2]octane-2-carboxylate]	4500
CCCOC(=O)N1CCN(C(=O)c2ccc3c(Cl)cc(-c4ccc(CO)cc4)nc3c2)CC1 [B255, Propyl 4-(4-chloro-2-(4-(hydroxymethyl)phenyl)quinoline-7-carbonyl)piperazine-1-carboxylate]	28
CCCOC(=O)N1CCN(C(=O)c2ccc3c(Cl)cc(-c4ccc(-n5cccn5)cc4)nc3c2)CC1 [B134, Propyl 4-(2-(4-(1H-pyrazol-1-yl)phenyl)-4-chloroquinoline-7-carbonyl)piperazine-1-carboxylate]	600
CCCOC(=O)N1CCN(C(=O)c2ccc3c(Cl)cc(-c4ccc5c(cnn5C)c4)nc3c2)C[C@H]1C [B086, Propyl (R)-4-(4-chloro-2-(1-methyl-1H-indazol-5-yl)quinoline-7-carbonyl)-2-methylpiperazine-1-carboxylate]	11
CCCOC(=O)N1CCN(C(=O)c2ccc3c(Cl)c4c(nc3c2)CC(c2ccnc(CN)c2)CC4)CC1 (stereo not drawn) [A144, Propyl 4-(6-(2-(aminomethyl)pyridin-4-yl)-9-chloro-5,6,7,8-tetrahydroacridine-3-carbonyl)piperazine-1-carboxylate]	510

Second part, the compound after the results:

IC50 [nM]	SMILES
1700	CCCOC(=O)N1CCN(C(=O)c2ccc3c(Cl)c4c(nc3c2)CC(c2ncccc2C)CC4)[C@@H](C)C1 (stereo partly drawn) [A101, Propyl (3S)-4-(9-chloro-6-(3-methylpyridin-2-yl)-5,6,7,8-tetrahydroacridine-3-carbonyl)-3-methylpiperazine-1-carboxylate]
58	CCCOC(=O)N1CCN(C(=O)c2ccc3c(Cl)cc(-c4cccc(NC)c4)nc3c2)C[C@H]1C [B083, Propyl (R)-4-(4-chloro-2-(3-(methylamino)phenyl)quinoline-7-carbonyl)-2-methylpiperazine-1-carboxylate]
650	CCCOC(=O)N1CCN(C(=O)c2ccc3c(Cl)c4c(nc3c2)CCCC4)C(C(=O)OC)C1 (stereo not drawn) [A051, 3-Methyl 1-propyl 4-(9-chloro-5,6,7,8-tetrahydroacridine-3-carbonyl)piperazine-1,3-dicarboxylate]
280	CCCOC(=O)N1CCN(C(=O)c2ccc3c(Cl)c4c(nc3c2)CCC(CC#N)C4)CC1 (stereo not drawn) [A078, Propyl 4-(9-chloro-7-(cyanomethyl)-5,6,7,8-tetrahydroacridine-3-carbonyl)piperazine-1-carboxylate]
190	CCCOC(=O)N1CCN(C(=O)c2ccc3c(Cl)cc(-c4ccccc4)nc3c2)[C@H](C)C1 [B015, Propyl (R)-4-(4-chloro-2-phenylquinoline-7-carbonyl)-3-methylpiperazine-1-carboxylate]
1900	CCCOC(=O)N1CCN(C(=O)c2ccc3c(Cl)c4c(nc3c2)C(c2ccccc2)CCC4)CC1 (stereo not drawn) [A119, Propyl 4-(9-chloro-5-phenyl-5,6,7,8-tetrahydroacridine-3-carbonyl)piperazine-1-carboxylate]
13	CCCOC(=O)N1CCN(C(=O)c2ccc3c(Cl)cc(-c4ccc(C(C)(C)CN)cc4)nc3c2)CC1 [B285, Propyl 4-(2-(4-(1-amino-2-methylpropan-2-yl)phenyl)-4-chloroquinoline-7-carbonyl)piperazine-1-carboxylate]
930	CCCOC(=O)N1CCN(C(=O)c2ccc3c(Cl)cc(-c4ccc(C(=O)OC)nc4)nc3c2)C[C@H]1C [B178, Propyl (R)-4-(4-chloro-2-(6-(methoxycarbonyl)pyridin-3-yl)quinoline-7-carbonyl)-2-methylpiperazine-1-carboxylate]
2900	CCCOC(=O)N1CCN(C(=O)c2ccc3c(Cl)cc(-c4ccccc4C)nc3c2)CC1 [B012, Propyl 4-(4-chloro-2-(o-tolyl)quinoline-7-carbonyl)piperazine-1-carboxylate]
94	CCCOC(=O)N1CCN(C(=O)c2ccc3c(Cl)c4c(nc3c2)CC(c2nccs2)CC4)C[C@H]1C (stereo partly drawn) [A129, Propyl (2R)-4-(9-chloro-6-(thiazol-2-yl)-5,6,7,8-tetrahydroacridine-3-carbonyl)-2-methylpiperazine-1-carboxylate]
1300	CCCOC(=O)N1CCN(C(=O)c2ccc3c(Cl)cc(-c4ccc(C(C)OCC)cc4)nc3c2)CC1 (stereo not drawn) [B239, Propyl 4-(4-chloro-2-(4-(1-ethoxyethyl)phenyl)quinoline-7-carbonyl)piperazine-1-carboxylate]
920	CCCOC(=O)N1CCN(C(=O)c2ccc3c(Cl)cc(-c4cccc(S(N)(=O)=O)c4)nc3c2)CC1 [B117, Propyl 4-(4-chloro-2-(3-sulfamoylphenyl)quinoline-7-carbonyl)piperazine-1-carboxylate]
380	CCCOC(=O)N1CCN(C(=O)c2ccc3c(Cl)cc(C4(C)CC4)nc3c2)C[C@H]1C [B109, Propyl (R)-4-(4-chloro-2-(1-methylcyclopropyl)quinoline-7-carbonyl)-2-methylpiperazine-1-carboxylate]
3200	CCCOC(=O)N1CCN(C(=O)c2ccc3c(Cl)c4c(nc3c2)CCCC4C#N)CC1 (stereo not drawn) [A026, Propyl 4-(9-chloro-8-cyano-5,6,7,8-tetrahydroacridine-3-carbonyl)piperazine-1-carboxylate]
800	CCCOC(=O)N1CCN(C(=O)c2ccc3c(Cl)cc(-c4ccnc5[nH]ccc45)nc3c2)CC1 [B221, Propyl 4-(4-chloro-2-(1H-pyrrolo[2,3-b]pyridin-4-yl)quinoline-7-carbonyl)piperazine-1-carboxylate]
1800	CCCOC(=O)N1CCN(C(=O)c2ccc3c(Cl)c4c(nc3c2)CCCC4)C(C)C1C (stereo not drawn) [A033, Propyl 4-(9-chloro-5,6,7,8-tetrahydroacridine-3-carbonyl)-2,3-dimethylpiperazine-1-carboxylate]
670	CCCOC(=O)N1CCN(C(=O)c2ccc3c(Cl)c(C)c(-c4ccc(C)cc4)nc3c2)CC1 [B025, Propyl 4-(4-chloro-3-methyl-2-(p-tolyl)quinoline-7-carbonyl)piperazine-1-carboxylate]
13	CCCOC(=O)N1CCN(C(=O)c2ccc3c(Cl)cc(-c4ccc(C(C)(C)CN)cc4)nc3c2)C[C@H]1C [B282, Propyl (R)-4-(2-(4-(1-amino-2-methylpropan-2-yl)phenyl)-4-chloroquinoline-7-carbonyl)-2-methylpiperazine-1-carboxylate]
1200	CCCOC(=O)N1CCN(C(=O)c2ccc3c(Cl)c4c(nc3c2)CC(c2ncccc2C)CC4)CC1 (stereo not drawn) [A096, Propyl 4-(9-chloro-6-(3-methylpyridin-2-yl)-5,6,7,8-tetrahydroacridine-3-carbonyl)piperazine-1-carboxylate]
240	CCCOC(=O)N1CCN(C(=O)c2ccc3c(Cl)c4c(nc3c2)CC(c2ccccn2)CC4)CC1 (single isomer, unassigned) [A053 (Ent-2), Propyl (R/S)-4-(9-chloro-6-(pyridin-2-yl)-5,6,7,8-tetrahydroacridine-3-carbonyl)piperazine-1-carboxylate]
